Results from US20240116985A1, “STAPLED PEPTIDES AND METHODS THEREOF” (priority 2020, published 2024).
Values after ≈ are worked out from the molar mass of the structure shown. Where two headings read alike, the source gives them in different places.

Experiments:
[1] = molecular target: T1, full-length beta-Catenin (Uniprot ID P35222) (Homo sapiens, UniProt P35222); experiment: Fluorescence polarization IC50 (beta-catenin / 5FAM-TCF4 10-53 competition); type: binding; conditions: read-out: beta-Catenin FP IC50
T1 construct: 10 nM full-length beta-Catenin (Uniprot ID P35222)
T1 sequence (P35222 1-781): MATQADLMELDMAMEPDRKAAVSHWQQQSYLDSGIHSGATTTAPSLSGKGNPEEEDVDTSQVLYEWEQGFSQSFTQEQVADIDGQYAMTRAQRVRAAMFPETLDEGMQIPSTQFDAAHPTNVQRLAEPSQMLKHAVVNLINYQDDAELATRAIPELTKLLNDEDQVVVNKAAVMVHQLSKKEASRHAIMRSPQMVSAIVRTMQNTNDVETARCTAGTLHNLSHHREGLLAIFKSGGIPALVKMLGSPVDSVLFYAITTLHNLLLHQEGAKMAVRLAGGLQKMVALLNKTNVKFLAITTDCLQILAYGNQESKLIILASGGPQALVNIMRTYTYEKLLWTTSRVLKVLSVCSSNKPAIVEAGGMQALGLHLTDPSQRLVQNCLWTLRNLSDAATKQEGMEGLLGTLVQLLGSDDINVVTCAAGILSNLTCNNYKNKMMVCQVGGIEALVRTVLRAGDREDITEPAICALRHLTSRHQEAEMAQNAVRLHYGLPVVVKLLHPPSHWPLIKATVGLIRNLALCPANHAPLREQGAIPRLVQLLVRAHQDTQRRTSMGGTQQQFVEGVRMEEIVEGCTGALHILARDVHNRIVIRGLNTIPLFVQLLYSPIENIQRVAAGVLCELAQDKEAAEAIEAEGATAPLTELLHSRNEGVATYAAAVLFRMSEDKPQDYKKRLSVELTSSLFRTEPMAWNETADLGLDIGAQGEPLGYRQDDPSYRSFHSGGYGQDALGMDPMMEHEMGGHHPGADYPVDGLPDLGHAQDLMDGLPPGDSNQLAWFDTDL

CHI Log D procedure = type: physicochemical; conditions: pH 7.4, CHI Log D
Solubility in PBS = type: physicochemical
Outline: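 Read-out is the HPLC peak area of the supernatant from ultracentrifuged PBS solution, scaled against a 50 μM peptide DMSO injection; value reported as [(PBS area)/(DMSO area)]*50 uM.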

[2] = molecular target: T2, beta-catenin/TCF4 engagement (Homo sapiens, UniProt P35222); experiment: Nano-BRET target engagement assay (B-cat-Halo & TCF4-Luc in HEK293 cells); type: cell-based; conditions: read-out: NanoBRET Abs IC50
T2 construct: expressed in transfected cells; host or cells: HEK293
T2 sequence (P35222 1-781): T1 sequence (P35222 1-781)

SMILES | IC50 [1] [nM] | chromatographic logD (CHI Log D procedure) | Solubility (Solubility in PBS) [µM] | IC50 [2] [nM] | Solubility (Solubility in PBS; Solubility (uM)) [µM] | IC50 ([2]; absolute IC50) [nM]
CC(=O)N1CCC[C@]12CC=CCCCC1(CCCC=CCCCCCC[C@@](C)(C(=O)N[C@@H](Cc3ccccc3Cl)C(=O)N[C@@H](Cc3csc4ccccc34)C(=O)N[C@@H](CCC(N)=O)C(N)=O)NC(=O)[C@H](CC(C)C)NC(=O)[C@H](Cc3ccccc3)NC(=O)[C@H](C)NC(=O)[C@H](C)NC(=O)[C@H](CCC(=O)O)NC(=O)[C@H](CC(=O)O)NC1=O)NC(=O)[C@H](CC(C)(C)C)NC(=O)[C@H](CC(=O)O)NC2=O (stereo partly drawn) [I-1096, Ac-PL3-Asp-Npg-B5-Asp-Glu-Ala-Ala-Phe-Leu-S8-2C1F-BztA-Gln-NH2] | 17 | 3.18 | 10 (≈ 19.2 µg/mL) | 8600 |  | 
CC(=O)N1CCC[C@]12CC=CCCCC1(CCCC=CCCCOC(=O)N3CC[C@@](C(=O)N[C@@H](Cc4ccccc4)C(=O)N[C@@H](Cc4csc5ccccc45)C(=O)N[C@@H](CO)C(N)=O)(C3)NC(=O)[C@H](CO)NC(=O)[C@H](Cc3ccccc3)NC(=O)[C@H](C)NC(=O)[C@H](C)NC(=O)[C@H](CC(=O)O)NC(=O)[C@H](CC(=O)O)NC1=O)NC(=O)[C@H](CC(C)(C)C)NC(=O)[C@H](CC(=O)O)NC2=O (stereo partly drawn) [I-1099, Ac-PL3-Asp-Npg-B5-Asp-Asp-Ala-Ala-Phe-Ser-PyrS2-Phe-BztA-Ser-NH2] | 9 | 2.16 |  |  | 47 (≈ 86.7 µg/mL) | 9000
CC(=O)N1CCC[C@]12CC=CCCCC1(CCCC=CCCCOC(=O)N3CC[C@@](C(=O)N[C@@H](Cc4ccccc4)C(=O)N[C@@H](Cc4csc5ccccc45)C(=O)N[C@@H](CO)C(N)=O)(C3)NC(=O)[C@H](CO)NC(=O)[C@H](Cc3ccccc3)NC(=O)[C@H](C)NC(=O)[C@H](C)NC(=O)[C@H](CC(=O)O)NC(=O)[C@H](CC(=O)O)NC1=O)NC(=O)[C@H](CC1CCCCC1)NC(=O)[C@H](CC(=O)O)NC2=O (stereo partly drawn) [I-1100, Ac-PL3-Asp-Cha-B5-Asp-Asp-Ala-Ala-Phe-Ser-PyrS2-Phe-BztA-Ser-NH2] | 16 | 2.36 |  | 24300 | 46 (≈ 86 µg/mL) | 
CC(=O)N1CCC[C@]12CC=CCCCC1(CCCC=CCCCOC(=O)N3CC[C@@](C(=O)N[C@@H](Cc4ccccc4F)C(=O)N[C@@H](Cc4csc5ccccc45)C(=O)N[C@@H](CO)C(N)=O)(C3)NC(=O)[C@H](CO)NC(=O)[C@H](Cc3ccccc3)NC(=O)[C@H](C)NC(=O)[C@H](C)NC(=O)[C@H](CC(=O)O)NC(=O)[C@H](CC(=O)O)NC1=O)NC(=O)[C@H](CC(C)(C)C)NC(=O)[C@H](CC(=O)O)NC2=O (stereo partly drawn) [I-1101, Ac-PL3-Asp-Npg-B5-Asp-Asp-Ala-Ala-Phe-Ser-PyrS2-2FF-BztA-Ser-NH2] | 14 | 2.22 |  | 27000 | 48 (≈ 89.4 µg/mL) | 
COc1ccccc1C[C@H](NC(=O)[C@]12CCN(C1)C(=O)OCCCC=CCCCC1(CCCC=CC[C@]3(CCCN3C(C)=O)C(=O)N[C@@H](CC(=O)O)C(=O)N[C@@H](CC(C)(C)C)C(=O)N1)C(=O)N[C@@H](CC(=O)O)C(=O)N[C@@H](CC(=O)O)C(=O)N[C@@H](C)C(=O)N[C@@H](C)C(=O)N[C@@H](Cc1ccccc1)C(=O)N[C@@H](CO)C(=O)N2)C(=O)N[C@@H](Cc1csc2ccccc12)C(=O)N[C@@H](CO)C(N)=O (stereo partly drawn) [I-1103, Ac-PL3-Asp-Npg-B5-Asp-Asp-Ala-Ala-Phe-Ser-PyrS2-2OMeF-BztA-Ser-NH2] | 15 | 2.18 |  | 16700 | 46 (≈ 86.2 µg/mL) | 
COc1ccccc1C[C@H](NC(=O)[C@]12CCN(C1)C(=O)OCCCC=CCCCC1(CCCC=CC[C@]3(CCCN3C(C)=O)C(=O)N[C@@H](CC(=O)O)C(=O)N[C@@H](CC3CCCCC3)C(=O)N1)C(=O)N[C@@H](CC(=O)O)C(=O)N[C@@H](CC(=O)O)C(=O)N[C@@H](C)C(=O)N[C@@H](C)C(=O)N[C@@H](Cc1ccccc1)C(=O)N[C@@H](CO)C(=O)N2)C(=O)N[C@@H](Cc1csc2ccccc12)C(=O)N[C@@H](CO)C(N)=O (stereo partly drawn) [I-1104, Ac-PL3-Asp-Cha-B5-Asp-Asp-Ala-Ala-Phe-Ser-PyrS2-2OMeF-BztA-Ser-NH2] | 10 | 2.38 |  | 17700 | 48 (≈ 91.2 µg/mL) | 
CC(=O)N1CCC[C@]12CC=CCCCC1(CCCC=CCCCOC(=O)N3CC[C@@](C(=O)N[C@@H](Cc4ccccc4)C(=O)N[C@@H](Cc4csc5ccccc45)C(=O)N[C@@H](CO)C(N)=O)(C3)NC(=O)[C@H](CO)NC(=O)[C@H](CC3CCCCC3)NC(=O)[C@H](C)NC(=O)[C@H](C)NC(=O)[C@H](CC(=O)O)NC(=O)[C@H](CC(=O)O)NC1=O)NC(=O)[C@H](CC(C)(C)C)NC(=O)[C@H](CC(=O)O)NC2=O (stereo partly drawn) [I-1105, Ac-PL3-Asp-Npg-B5-Asp-Asp-Ala-Ala-Cha-Ser-PyrS2-Phe-BztA-Ser-NH2] | 36 | 2.33 |  |  | 48 (≈ 88.8 µg/mL) | > 20000
CC(=O)N1CCC[C@]12CC=CCCCC1(CCCC=CCCCOC(=O)N3CC[C@@](C(=O)N[C@@H](CC4CCCCC4)C(=O)N[C@@H](Cc4csc5ccccc45)C(=O)N[C@@H](CO)C(N)=O)(C3)NC(=O)[C@H](CO)NC(=O)[C@H](Cc3ccccc3)NC(=O)[C@H](C)NC(=O)[C@H](C)NC(=O)[C@H](CC(=O)O)NC(=O)[C@H](CC(=O)O)NC1=O)NC(=O)[C@H](CC(C)(C)C)NC(=O)[C@H](CC(=O)O)NC2=O (stereo partly drawn) [I-1106, Ac-PL3-Asp-Npg-B5-Asp-Asp-Ala-Ala-Phe-Ser-PyrS2-Cha-BztA-Ser-NH2] | 23 | 2.44 |  |  | 47 (≈ 87 µg/mL) | > 20000
CC(=O)N1CCC[C@]12CC=CCCCC1(CCCC=CCCCOC(=O)N3CC[C@@](C(=O)N[C@@H](Cc4ccccc4Cl)C(=O)N[C@@H](Cc4csc5ccccc45)C(=O)N[C@@H](CCC(N)=O)C(N)=O)(C3)NC(=O)[C@H](CC3CCCCC3)NC(=O)[C@H](Cc3ccccc3)NC(=O)[C@H](C)NC(=O)[C@H](C)NC(=O)[C@H](CC(=O)O)NC(=O)[C@H](CC(=O)O)NC1=O)NC(=O)[C@H](CC1CCCCC1)NC(=O)[C@H](CC(=O)O)NC2=O (stereo partly drawn) [I-1107, Ac-PL3-Asp-Cha-B5-Asp-Asp-Ala-Ala-Phe-Cha-PyrS2-2C1F-BztA-Gln-NH2] | 18 | 2.64 | 10 (≈ 20.1 µg/mL) | 11800 |  | 
CC(=O)N1CCC[C@]12CC=CCCCC1(CCCC=CCCCOC(=O)N3CC[C@@](C(=O)N[C@@H](Cc4ccccc4Cl)C(=O)N[C@@H](Cc4csc5ccccc45)C(=O)N[C@@H](CCC(N)=O)C(N)=O)(C3)NC(=O)[C@H](CO)NC(=O)[C@H](Cc3ccccc3)NC(=O)[C@H](C)NC(=O)[C@H](C)NC(=O)[C@H](CC(=O)O)NC(=O)[C@H](CC(=O)O)NC1=O)NC(=O)[C@H](Cc1cccc3ccccc13)NC(=O)[C@H](CC(=O)O)NC2=O (stereo partly drawn) [I-1108, Ac-PL3-Asp-1NapA-B5-Asp-Asp-Ala-Ala-Phe-Ser-PyrS2-2C1F-BztA-Gln-NH2] | 18 | 2.29 |  | > 20000 | 42 (≈ 83.6 µg/mL) | 
CC(=O)N1CCC[C@]12CC=CCCCC1(CCCC=CCCCOC(=O)N3CC[C@@](C(=O)N[C@@H](Cc4ccccc4Cl)C(=O)N[C@@H](Cc4csc5ccccc45)C(=O)N[C@@H](CCC(N)=O)C(N)=O)(C3)NC(=O)[C@H](CO)NC(=O)[C@H](Cc3ccccc3)NC(=O)[C@H](C)NC(=O)[C@H](C)NC(=O)[C@H](CC(=O)O)NC(=O)[C@H](CC(=O)O)NC1=O)NC(=O)[C@H](Cc1ccc3ccccc3c1)NC(=O)[C@H](CC(=O)O)NC2=O (stereo partly drawn) [I-1109, Ac-PL3-Asp-2NapA-B5-Asp-Asp-Ala-Ala-Phe-Ser-PyrS2-2C1F-BztA-Gln-NH2] | 24 | 2.31 |  | > 20000 | 45 (≈ 89.5 µg/mL) | 
